Measurements reported in patent publication US12251422B2, “Compositions and methods for treating neurological and other disorders” (Rush University Medical Center, priority 2018, dated 2025).

How the values were obtained:
NF-κB = NF-κB activation by EMSA in BV-2 microglial cells; format: cell-based
Protocol: FIG. 4(A-S). Effect of wtTIDM and mTIDM peptides on the induction of NF-κB activation and the expression of proinflammatory molecules in microglial cells. BV-2 microglial cells preincubated with 10 μM wtTIDM/mTIDM peptides for 1 h were stimulated with 1 μM fibrillar Aβ1-42 (A-C), 1 μM MPP+ (D-F), 250 ng/ml LTA (G-I), […] LPS (J-L), 1 μM flagellin (M-O), and 1 μM CpG DNA (P-R) under serum-free condition. After 1 h of stimulation, the activation of NF-κB was monitored in nuclear extracts by EMSA (A, fibrillar Aβ; D, MPP+; G, LTA; J, LPS; M, flagellin, P; CpG DNA). After 4 h of stimulation, the mRNA expression of IL-1β (B, E, H, K, N, & Q) and iNOS (C, F, I, L, O, & R) was monitored by real-time PCR (B-C, fibrillar Aβ; E-F, MPP+; H-I, LTA; K-L, LPS; N-O, flagellin; Q-R, CpG DNA) (n=2 replicates/dose in 3 independent experiments). ap<0.001 vs control; bp<0.001 vs stimuli by two-sample t-tests. FIG. 4S is a schematic representation of the relationships in microglia of Toll-Like Receptors, the stimulators tested, wTIDM, MyD88 and NF-κB.
FIG. 14 (A-D). Effect of wtTIDM and mTIDM peptides on polyIC-mediated activation of NF-κB activation and the expression of proinflammatory molecules in microglial cells. BV-2 microglial cells preincubated with 10 μM wtTIDM/mTIDM peptides for 1 h were stimulated with 50 μM polyIC. A) After 1 h of stimulation, the activation of NF-κB was monitored in nuclear extracts by EMSA. After 4 h of stimulation, the mRNA expression of IL-1β and iNOS was monitored by semi-quantitative RT-PCR (B) and real-time PCR (C, IL-1β; D, iNOS) (n=2 replicates/condition in 3 independent experiments). ap<0.001 vs control; bp<0.001 vs stimuli by two-sample t-tests.
Nuclear extracts were isolated and EMSA was carried out as described before (22, 23).

A53T α-syn Tg mice = experiment: α-Synucleinopathy in A53T α-syn Tg mice; format: in vivo, mouse; conditions: 0.1 mg/kg body wt/d intranasal, 30 d
Protocol: FIG. 28 (A-B). Intranasal wtTIDM peptide attenuates microglial inflammation in the nigra of A53T α-syn Tg mice. A53T mice (male; 9-month old; n=6 per group) were treated with TIDM peptides via intranasal route at a dose of 0.1 mg/kg body wt/d for 30 d followed by double-label immunofluorescence analysis of nigral sections for Iba-1 and inducible nitric oxide synthase (iNOS) (A). Magnified images of selected area are shown at the bottom row. The iNOS (+ve) cells were counted in two sections of each of six mice per group and presented as cells/mm2.
FIG. 29 (A-B). Intranasal wtTIDM peptide stimulates microglial expression of arginase-1 in the nigra of A53T α-syn Tg mice. A53T mice (male; 9-month old; n=6 per group) were treated with TIDM peptides via intranasal route at a dose of 0.1 mg/kg body wt/d for 30 d followed by double-label immunofluorescence analysis of nigral sections for Iba-1 and arginase-1 (ARG1) (A). Magnified images of selected area are shown at the bottom row. The ARG-1 (+ve) cells were counted in two sections of each of six mice per group and presented as cells/mm2.
FIG. 30 (A-C). Intranasal wtTIDM peptide reduces α-synucleinopathy in the nigra of A53T α-syn Tg mice. A53T mice (male; 9-month old; n=6 per group) were treated with TIDM peptides via intranasal route at a dose of 0.1 mg/kg body wt/d for 30 d followed by Western blot analysis of nigral extracts for α-syn (A). Bands were scanned and presented as relative to A53T control (B, monomeric α-syn; C, oligomeric α-syn). Results are mean+SEM of six mice per group.
(§1) FIG. 31 (A-D). Intranasal wtTIDM peptide reduces α-synucleinopathy in the nigra of A53T α-syn Tg mice. A53T mice (male; 9-month old; n=6 per group) were treated with TIDM peptides via intranasal route at a dose of 0.1 mg/kg body wt/d for 30 d followed by double-label immunofluorescence analysis of nigral sections for TH and α-syn (mjfr1 Ab) (A). Magnified images of selected area are shown at the leftmost column. Total area (B), average size (C) and integrated density (D) of α-syn-positive cell bodies were calculated. Five cells from each of two nigral sections of six mice per group were analyzed.
as §1, with “FIG. 32 (A-B).” for “FIG. 31 (A-D).”, “for microglial marker Iba-1” for “for TH”, “column. Mean fluorescence intensity (MFI)” for “column. Total area (B), average size (C) and integrated density (D)”, “of (α-syn+Iba-1)-positive” for “of α-syn-positive”, “bodies was” for “bodies were”
FIG. 33 (A-E). Intranasal wtTIDM peptide improve locomotor activities of A53T α-syn Tg mice. A53T mice (male; 9-month old; n=6 per group) were treated with TIDM peptides via intranasal route at a dose of 0.1 mg/kg body wt/d for 30 d followed by monitoring locomotor activities by the Ethovision XT 13.0 Open Field Activity System (Noldus) (A, track plot; B, moving cumulative duration; C, distance; D, velocity; E, rotorod). Results are mean+SEM of six mice per group.

CC[C@H](C)[C@H](NC(=O)[C@H](CCCCN)NC(=O)[C@@H](NC(=O)[C@H](CCC(N)=O)NC(=O)[C@H](CCCNC(=N)N)NC(=O)[C@@H](N)CC(=O)O)[C@@H](C)CC)C(=O)N[C@@H](Cc1c[nH]c2ccccc12)C(=O)N[C@@H](Cc1ccccc1)C(=O)N[C@@H](CCC(N)=O)C(=O)N[C@@H](CC(N)=O)C(=O)N[C@@H](CCCNC(=N)N)C(=O)N[C@@H](CCCNC(=N)N)C(=O)N[C@@H](CCSC)C(=O)N[C@@H](CCCCN)C(=O)N[C@@H](Cc1c[nH]c2ccccc12)C(=O)N[C@@H](CCCCN)C(=O)N[C@@H](CCCCN)C(=O)N1CCC[C@H]1C(=O)NCC(=O)N[C@@H](Cc1c[nH]c2ccccc12)C(=O)N[C@@H](Cc1c[nH]cn1)C(=O)N[C@@H](CCC(N)=O)C(=O)N[C@@H](CC(=O)O)C(=O)O [mTIDM, drqikiwfqnrrmkwkkPGWHQD]
effect on activation of NF-κB induced by any of the stimuli (NF-κB; fibrillar Aβ, MPP+, LTA, poly IC, LPS, flagellin, CpG DNA): had no effect | protective effect in A53T mice (all readouts) (A53T α-syn Tg mice): did not exhibit any such protective effect

CC[C@H](C)[C@H](NC(=O)[C@H](CCCCN)NC(=O)[C@@H](NC(=O)[C@H](CCC(N)=O)NC(=O)[C@H](CCCNC(=N)N)NC(=O)[C@@H](N)CC(=O)O)[C@@H](C)CC)C(=O)N[C@@H](Cc1c[nH]c2ccccc12)C(=O)N[C@@H](Cc1ccccc1)C(=O)N[C@@H](CCC(N)=O)C(=O)N[C@@H](CC(N)=O)C(=O)N[C@@H](CCCNC(=N)N)C(=O)N[C@@H](CCCNC(=N)N)C(=O)N[C@@H](CCSC)C(=O)N[C@@H](CCCCN)C(=O)N[C@@H](Cc1c[nH]c2ccccc12)C(=O)N[C@@H](CCCCN)C(=O)N[C@@H](CCCCN)C(=O)N1CCC[C@H]1C(=O)NCC(=O)N[C@@H](C)C(=O)N[C@@H](Cc1c[nH]cn1)C(=O)N[C@@H](CCC(N)=O)C(=O)N[C@@H](CCCCN)C(=O)O [wtTIDM, drqikiwfqnrrmkwkkPGAHQK]
inhibition of LTA-mediated activation of NF-κB (NF-κB; 10 μM peptide 1 h, then 250 ng/ml LTA for 1 h): inhibited | suppression of NF-κB activation induced by CpG DNA (NF-κB; 10 μM peptide 1 h, then 1 μM CpG DNA for 1 h): remained unable to suppress | suppression of NF-κB activation induced by MPP+ (NF-κB; 10 μM peptide 1 h, then 1 μM MPP+ for 1 h): remained unable to suppress | inhibition of fibrillar Aβ-mediated activation of NF-κB (NF-κB; 10 μM peptide 1 h, then 1 μM fibrillar Aβ1-42 for 1 h): inhibited | suppression of NF-κB activation induced by flagellin (NF-κB; 10 μM peptide 1 h, then 1 μM flagellin for 1 h): remained unable to suppress | suppression of NF-κB activation induced by poly IC (NF-κB; 10 μM peptide 1 h, then 50 μM polyIC for 1 h): remained unable to suppress | suppression of NF-κB activation induced by LPS (NF-κB; 10 μM peptide 1 h, then 1 mg/ml LPS for 1 h): remained unable to suppress | arginase-1 in the nigra (A53T α-syn Tg mice): increase | locomotor activities of A53T mice (A53T α-syn Tg mice): improved | microglial expression of iNOS in the nigra (A53T α-syn Tg mice): reduced | microglial α-syn in the nigra (A53T α-syn Tg mice): decrease | oligomeric and monomeric α-syn (A53T α-syn Tg mice): reduction | α-syn inclusion bodies within tyrosine hydroxylase-positive dopaminergic neurons (A53T α-syn Tg mice): suppression
